Data as given in patent publication US9926319B2, “Pyridyl piperidines” (MERCK PATENT GMBH, priority 2014, dated 2018).
Like-named read-outs stand apart in the source and are kept apart here.

Experiments:
Wnt pathway = experiment: Cellular assay for Wnt pathway activity (luciferase reporter cell based assay); conditions: HEK293 luciferase reporter cell line (ER-DSH, TCF dependent promoter), induced with estrogen (1 μM), read-out: 7df3 IC50
[1] = CLint (intrinsic clearance) assay, microsomal incubation; type: in vitro ADME, Human; conditions: NADPH, 37° C., up to 30 min; for microsomal CLint at 0.8 μM: human, liver microsomes, pH 7.4, human liver microsomes 0.5 mg/mL protein; for Human Clint: human liver microsomes 0.5 mg/mL protein
How it was run: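 Test compound at 0.8 μM was incubated at 37 °C with liver microsomes at 0.5 mg/mL protein in 0.1 M potassium phosphate pH 7.4 with 1 mM MgCl2, NADPH-started, with no-cofactor controls. Acetonitrile quench at 0, 5, 10, 20 and 30 min, then LC-MS/MS peak-area decline. CLint (μL/min/mg protein) = k·1000/protein concentration.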

SMILES	IC50 (Wnt pathway; 24 h)	microsomal CLint at 0.8 μM [1]	Human Clint [1]	IC50 (Wnt pathway; 24 hours)
CC1NC(=O)OC12CCN(c1c(Cl)cncc1-c1ccc3c(c1)CS(=O)(=O)N3C)CC2 (racemic) [Example 96, 8-[3-Chloro-5-(1-methyl-2,2-dioxo-2,3-dihydro-1H-2l6-benzo[c]isothiazol-5-yl)-pyridin-4-yl]-4-methyl-1-oxa-3,8-diaza-spiro[4.5]decan-2-one]	4.2 nM	39 µL/min/mg	–	–
CCn1cc2cc(-c3cncc(Cl)c3N3CCC4(CC3)CNC(=O)O4)ccc2n1 [Example 95, 8-[3-Chloro-5-(2-ethyl-2H-indazol-5-yl)-pyridin-4-yl]-1-oxa-3,8-diaza-spiro[4.5]decan-2-one]	4.5 nM	< 10 µL/min/mg	–	–
CN1c2ccc(-c3cncc(Cl)c3N3CCC4(CC3)C[C@H](C(F)(F)F)NC4=O)cc2CS1(=O)=O [Example 53, (R)-8-[3-Chloro-5-(1-methyl-2,2-dioxo-2,3-dihydro-1H-2l6-benzo[c]isothiazol-5-yl)-pyridin-4-yl]-3-trifluoromethyl-2,8-diaza-spiro[4.5]decan-1-one]	15 nM	42 µL/min/mg	–	–
C[C@H]1NC(=O)OC12CCN(c1c(Cl)cncc1-c1ccc(-c3cnn(C)c3)cc1)CC2 [Example 100, (R)-8-{3-Chloro-5-[4-(1-methyl-1H-pyrazol-4-yl)-phenyl]-pyridin-4-yl}-4-methyl-1-oxa-3,8-diaza-spiro[4.5]decan-2-one]	37 nM	31 µL/min/mg	–	–
Cn1cc(-c2ccc(-c3cncc(Cl)c3N3CCC4(CC3)C(=O)Nc3ccccc34)cc2)cn1 [Example 69]	1.1 nM	89 µL/min/mg	–	–
Cn1cc(-c2ccc(-c3cncc(F)c3N3CCC4(CC3)CNC(=O)O4)cc2)cn1 [Example 79, 8-{3-Fluoro-5-[4-(1-methyl-1H-pyrazol-4-yl)-phenyl]-pyridin-4-yl}-1-oxa-3,8-diaza-spiro[4.5]decan-2-one]	43 nM	–	24 µL/min/mg	–
Cn1cc(-c2ccc(-c3cncc(Cl)c3N3CCC4(CC3)C(=O)NN=C4C(F)(F)F)cc2)cn1 [Example 59, 8-{3-Chloro-5-[4-(1-methyl-1H-pyrazol-4-yl)-phenyl]-pyridin-4-yl}-4-trifluoromethyl-2,3,8-triaza-spiro[4.5]dec-3-en-1-one]	17 nM	43 µL/min/mg	–	–
Cn1ncc2cc(-c3cncc(Cl)c3N3CCC4(CC3)NC(=O)NC4=O)ccc21 [Example 2, 8-[3-Chloro-5-(1-methyl-1H-indazol-5-yl)-pyridin-4-yl]-1,3,8-triaza-spiro[4.5]decane-2,4-dione]	46 nM	15 µL/min/mg	–	–
O=C1NCC2(CCN(c3c(Cl)cncc3-c3ccc(-c4cnn(C5CC5)c4)cc3)CC2)O1 [Example 60, 8-{3-Chloro-5-[4-(1-cyclopropyl-1H-pyrazol-4-yl)-phenyl]-pyridin-4-yl}-1-oxa-3,8-diaza-spiro[4.5]decan-2-one]	6.1 nM	23 µL/min/mg	–	–
CN1c2ccc(-c3cncc(Cl)c3N3CCC(C#N)(CCO)CC3)cc2CS1(=O)=O [Example 33, 5′-Chloro-4-(2-hydroxy-ethyl)-3′-(1-methyl-2,2-dioxo-2,3-dihydro-1H-2l6-benzo[c]isothiazol-5-yl)-3,4,5,6-tetrahydro-2H-[1,4′]bipyridinyl-4-carbonitrile]	0.6 nM	88 µL/min/mg	–	–
CC1=NC(=O)C2(CCN(c3c(Cl)cncc3-c3ccc(-c4cnn(C)c4)cc3)CC2)N1 [Example 20, 8-{3-Chloro-5-[4-(1-methyl-1H-pyrazol-4-yl)-phenyl]-pyridin-4-yl}-2-methyl-1,3,8-triaza-spiro[4.5]dec-2-en-4-one]	22 nM	24 µL/min/mg	–	–
Cn1ncc2cc(-c3cncc(Cl)c3N3CCC4(CC3)CC(=O)NC4=O)ccc21 [Example 1, 8-[3-Chloro-5-(1-methyl-1H-indazol-5-yl)-pyridin-4-yl]-2,8-diaza-spiro[4.5]decane-1,3-dione]	3.4 nM	11 µL/min/mg	–	–
Cn1ncc2cc(-c3cncc(Cl)c3N3CCC4(CC3)NCNC4=O)ccc21 [Example 82, 8-[3-Chloro-5-(1-methyl-1H-indazol-5-yl)-pyridin-4-yl]-1,3,8-triaza-spiro[4.5]decan-4-one]	7.3 nM	47 µL/min/mg	–	–
O=C1CCc2ccc(-c3cncc(Cl)c3N3CCC4(CCNC4=O)CC3)cc2N1 [Example 12, 7-[5-Chloro-4-(1-oxo-2,8-diaza-spiro[4.5]dec-8-yl)-pyridin-3-yl]-3,4-dihydro-1H-quinolin-2-one]	43 nM	27 µL/min/mg	–	–
N#CCCn1cc(-c2ccc(-c3cncc(Cl)c3N3CCC4(CC3)CNC(=O)O4)cc2)cn1 [Example 40, 3-(4-{4-[5-Chloro-4-(2-oxo-1-oxa-3,8-diaza-spiro[4.5]dec-8-yl)-pyridin-3-yl]-phenyl}-pyrazol-1-yl)-propionitrile]	3.9 nM	61 µL/min/mg	–	–
CS(=O)(=O)CCn1cc(-c2ccc(-c3cncc(Cl)c3N3CCC4(CC3)CNC(=O)O4)cc2)cn1 [Example 39, 8-(3-Chloro-5-{4-[1-(2-methanesulfonyl-ethyl)-1H-pyrazol-4-yl]-phenyl}-pyridin-4-yl)-1-oxa-3,8-diaza-spiro[4.5]decan-2-one]	14 nM	12 µL/min/mg	–	–
Cn1ncc2ccc(-c3cncc(Cl)c3N3CCC4(CC3)CC(=O)NC4=O)cc21 [Example 66, 8-[3-Chloro-5-(1-methyl-1H-indazol-6-yl)-pyridin-4-yl]-2,8-diaza-spiro[4.5]decane-1,3-dione]	15 nM	< 10 µL/min/mg	–	–
Cn1nc(N)c2ccc(-c3cncc(Cl)c3N3CCC4(CC3)CC(=O)NC4=O)cc21 [Example 28, 8-[3-(3-Amino-1-methyl-1H-indazol-6-yl)-5-chloro-pyridin-4-yl]-2,8-diaza-spiro[4.5]decane-1,3-dione]	1.3 nM	60 µL/min/mg	–	–
O=C1NCC2(CCN(c3c(Cl)cncc3-c3ccc(-c4cnn([C@H]5CCC[C@@H]5O)c4)cc3)CC2)O1 [Example 62, 8-(3-Chloro-5-{4-[1-((1S,2S)-2-hydroxy-cyclopentyl)-1H-pyrazol-4-yl]-phenyl}-pyridin-4-yl)-1-oxa-3,8-diaza-spiro[4.5]decan-2-one]	34 nM	37 µL/min/mg	–	–
O=C1NCC2(CCN(c3c(Cl)cncc3-c3ccc(-c4cnn(C5COC5)c4)cc3)CC2)O1 [Example 55, 8-{3-Chloro-5-[4-(1-oxetan-3-yl-1H-pyrazol-4-yl)-phenyl]-pyridin-4-yl}-1-oxa-3,8-diaza-spiro[4.5]decan-2-one]	20 nM	23 µL/min/mg	–	–
O=C1CC2(CCN(c3c(Cl)cncc3-c3ccc4c(c3)CS(=O)(=O)N4)CC2)C(=O)N1 [Example 84, 8-[3-Chloro-5-(2,2-dioxo-2,3-dihydro-1H-2l6-benzo[c]isothiazol-5-yl)-pyridin-4-yl]-2,8-diaza-spiro[4.5]decane-1,3-dione]	15 nM	< 10 µL/min/mg	–	–
Cn1cc(-c2ccc(-c3cncc(Cl)c3N3CCC4(CC3)NCCNC4=O)cc2)cn1 [Example 71, 9-{3-Chloro-5-[4-(1-methyl-1H-pyrazol-4-yl)-phenyl]-pyridin-4-yl}-1,4,9-triaza-spiro[5.5]undecan-5-one]	12 nM	49 µL/min/mg	–	–
CC(C)n1cc(-c2ccc(-c3cncc(C(F)(F)F)c3N3CCC4(CC3)CNC(=O)O4)cc2)cn1 [Example 38, 8-{3-[4-(1-Isopropyl-1H-pyrazol-4-yl)-phenyl]-5-trifluoromethyl-pyridin-4-yl}-1-oxa-3,8-diaza-spiro[4.5]decan-2-one]	33 nM	16 µL/min/mg	–	–
CN1c2ccc(-c3cncc(Cl)c3N3CCC(N)(C(N)=O)CC3)cc2CS1(=O)=O [Example 44, 4-Amino-5′-chloro-3′-(1-methyl-2,2-dioxo-2,3-dihydro-1H-2l6-benzo[c]isothiazol-5-yl)-3,4,5,6-tetrahydro-2H-[1,4′]bipyridinyl-4-carboxylic acid amide]	5.1 nM	< 10 µL/min/mg	–	–
Nc1n[nH]c2cc(-c3cncc(Cl)c3N3CCC4(CC3)CC(=O)NC4=O)ccc12 [Example 14, 8-[3-(3-Amino-1H-indazol-6-yl)-5-chloro-pyridin-4-yl]-2,8-diaza-spiro[4.5]decane-1,3-dione]	18 nM	< 10 µL/min/mg	–	–
O=C1NCCC12CCN(c1c(Cl)cncc1-c1ccc3c(c1)CS(=O)(=O)C3)CC2 [Example 32, 8-[3-Chloro-5-(2,2-dioxo-2,3-dihydro-1H-2l6-benzo[c]thiophen-5-yl)-pyridin-4-yl]-2,8-diaza-spiro[4.5]decan-1-one]	4.7 nM	70 µL/min/mg	–	–
Cn1cc2cc(-c3cncc(Cl)c3N3CCC4(CCNC4=O)CC3)ccc2n1 [Example 92, 8-[3-Chloro-5-(2-methyl-2H-indazol-5-yl)-pyridin-4-yl]-2,8-diaza-spiro[4.5]decan-1-one]	14 nM	33 µL/min/mg	–	–
Cn1ncc2cc(-c3cncc(Cl)c3N3CCC4(CC3)C(=O)NCC4O)ccc21 (stereo not shown) [Example 70, 8-[3-Chloro-5-(1-methyl-1H-indazol-5-yl)-pyridin-4-yl]-4-hydroxy-2,8-diaza-spiro[4.5]decan-1-one]	–	–	24 µL/min/mg	20 nM
C[C@@H]1NC(=O)OC12CCN(c1c(Cl)cncc1-c1ccc3c(c1)CS(=O)(=O)N3C)CC2 [Example 98, (S)-8-[3-Chloro-5-(1-methyl-2,2-dioxo-2,3-dihydro-1H-2l6-benzo[c]isothiazol-5-yl)-pyridin-4-yl]-4-methyl-1-oxa-3,8-diaza-spiro[4.5]decan-2-one]	4.3 nM	35 µL/min/mg	–	–
